This passage reports T/C results from PubChem BioAssay AID330 (DTP/NCI, 2004).

“And” between values parts separate entries of the source, which are not always exact repeats. Identical values can stand only once. Inconclusive results and toxic doses are left out.

The experiment concerns P388 leukemia ip, CD2F1 mice, survival T/C. Kind of experiment: NCI In Vivo Anticancer Drug Screen. Data for tumor model P388 Leukemia (intraperitoneal) in CD2F1 (CDF1) mice. As to conditions: endpoint: median survival time, higher = longer survival. A digest of the protocol: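 Mice carrying the transplanted tumor received test compound or vehicle. Survival was recorded in each group, and the value is the treated-group measurement divided by that of the vehicle-treated control group.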

Setting [1] is: dose: 25.0 mg/kg/injection, schedule: Q01DX009 (ip), vehicle: saline with Tween-80.
[2] abbreviates: dose: 50.0 mg/kg/injection, schedule: Q01DX009 (ip), vehicle: saline with Tween-80.
Setting [3] is: dose: 100.0 mg/kg/injection, schedule: Q04DX003 (ip), vehicle: saline with Tween-80.
Setting [4] is: dose: 200.0 mg/kg/injection, schedule: Q04DX003 (ip), vehicle: saline with Tween-80.
Setting [5] is: dose: 50.0 mg/kg/injection, schedule: Q01DX009 (ip), vehicle: Klucel (hydroxypropylcellulose) (HPC).
Where [6] appears, read: dose: 100.0 mg/kg/injection, schedule: Q01DX009 (ip), vehicle: Klucel (hydroxypropylcellulose) (HPC).
Where [7] appears, read: dose: 200.0 mg/kg/injection, schedule: Q01DX009 (ip), vehicle: Klucel (hydroxypropylcellulose) (HPC).
Where [8] appears, read: dose: 50.0 mg/kg/injection, schedule: Q01DX005 (ip), vehicle: Klucel (hydroxypropylcellulose) (HPC).
The mark [9] stands for this setting: dose: 12.5 mg/kg/injection, schedule: Q01DX009 (ip), vehicle: Klucel (hydroxypropylcellulose) (HPC).
The mark [10] stands for this setting: dose: 25.0 mg/kg/injection, schedule: Q01DX009 (ip), vehicle: Klucel (hydroxypropylcellulose) (HPC).
Where [11] appears, read: dose: 50.0 mg/kg/injection, schedule: Q01DX009 (ip), vehicle: saline.
Where [12] appears, read: dose: 100.0 mg/kg/injection, schedule: Q01DX009 (ip), vehicle: saline.
Where [13] appears, read: dose: 100.0 mg/kg/injection, schedule: Q01DX009 (ip), vehicle: saline with Tween-80.
The mark [14] stands for this setting: dose: 200.0 mg/kg/injection, schedule: Q01DX009 (ip), vehicle: saline with Tween-80.
[15] abbreviates: dose: 12.5 mg/kg/injection, schedule: Q01DX005 (ip), vehicle: Klucel (hydroxypropylcellulose) (HPC).
The mark [16] stands for this setting: dose: 25.0 mg/kg/injection, schedule: Q01DX005 (ip), vehicle: Klucel (hydroxypropylcellulose) (HPC).

With `C=C(CN(C)C)C(=O)c1ccc(Oc2ccccc2)cc1`, the T/C by setting is: (dose: 0.93 mg/kg/injection, schedule: Q01DX005 (ip), vehicle: saline) 104 % of control; (dose: 1.87 mg/kg/injection, schedule: Q01DX005 (ip), vehicle: saline) 100 % of control; (dose: 3.75 mg/kg/injection, schedule: Q01DX005 (ip), vehicle: saline) 100 % of control.
Regarding `[Cl][Pt+2][Cl].[NH-]c1ccc([N+](=O)[O-])cc1[NH-]`, the T/C reads like this: (dose: 3.12 mg/kg/injection, schedule: Q04DX002 (ip), vehicle: saline with Tween-80) 100 % of control; (dose: 6.25 mg/kg/injection, schedule: Q04DX002 (ip), vehicle: saline with Tween-80) 110 % of control and 113 % of control; (dose: 12.5 mg/kg/injection, schedule: Q04DX002 (ip), vehicle: saline with Tween-80) 115 % of control and 118 % of control; (dose: 25.0 mg/kg/injection, schedule: Q04DX002 (ip), vehicle: saline with Tween-80) 123 % of control; (dose: 50.0 mg/kg/injection, schedule: Q04DX002 (ip), vehicle: saline with Tween-80) 117 % of control.
In the case of `CC(=O)Nc1c(Cl)c(Cl)c2c(c1Cl)Cc1cc(Cl)c(Cl)cc1-2`, the T/C reads like this: (dose: 12.5 mg/kg/injection, schedule: Q01DX009 (ip), vehicle: saline with Tween-80) 100 % of control; under setting [1], 100 % of control; under setting [2], 95 % of control; under setting [3], 109 % of control; under setting [4], 100 % of control; (dose: 400.0 mg/kg/injection, schedule: Q04DX003 (ip), vehicle: saline with Tween-80) 104 % of control.
Regarding `Cc1cccc(N=Cc2ccc(C=Nc3cccc(C)c3C)cc2)c1C`, the T/C under setting [5] was 92 % of control, the T/C under setting [6] is 91 % of control and the T/C under setting [7] was 86 % of control.
As for `COc1cc2cc3c4cc5c(cc4cc[n+]3c(C)c2cc1OC)OCO5` (tested in a mixture with another compound), for the setting “dose: 15.0 mg/kg/injection, schedule: Q04DX003 (ip), vehicle: saline”, the T/C was 153 % of control.
As to `c1ccc2c(c1)C1CC3N=NC1C23` (configuration not stated), the T/C runs as follows: under setting [8], 105 % of control; (dose: 100.0 mg/kg/injection, schedule: Q01DX005 (ip), vehicle: Klucel (hydroxypropylcellulose) (HPC)) 107 % of control.
As for `O=C1CCCC2OC12` (configuration not stated), the T/C runs as follows: (dose: 100.0 mg/kg/injection, schedule: Q04DX002 (ip), vehicle: saline) 110 % of control; (dose: 200.0 mg/kg/injection, schedule: Q04DX002 (ip), vehicle: saline) 112 % of control.
Regarding `CC(=O)C1CCC2=C(C1)C(=O)c1cc3c(cc1C2=O)C1(c2ccccc2)OC3(c2ccccc2)C2C(=O)N(c3ccccc3)C(=O)C21` (configuration not stated), the T/C (dose: 60.0 mg/kg/injection, schedule: Q01DX005 (ip), vehicle: Klucel (hydroxypropylcellulose) (HPC)) is 90 % of control and the T/C (dose: 120.0 mg/kg/injection, schedule: Q01DX005 (ip), vehicle: Klucel (hydroxypropylcellulose) (HPC)) was 88 % of control.
Turning to `CC(=O)OC(C(=O)C=[N+]=[N-])C(OC(C)=O)C(OC(C)=O)C(=O)C=[N+]=[N-]` (configuration not stated), the T/C was 99 % of control under setting [5], 113 % of control under setting [6] and 108 % of control under setting [7].
For the compound `Cc1n(-c2ccccc2)nn[n+]1C`, the T/C under setting [9] is 116 % of control and 92 % of control; the T/C under setting [10] is 101 % of control; the T/C under setting [5] is 103 % of control and 91 % of control.
On to `Cc1cc(O)c2c(O)c(-c3ccc4cc(C)cc(O)c4c3O)ccc2c1`, for which the T/C reads like this: under setting [11], 104 % of control; under setting [12], 112 % of control.
As for `CCCCNC(=S)N/N=C/c1ccccn1`, the T/C by setting is: under setting [1], 101 % of control; under setting [2], 94 % of control; under setting [13], 111 % of control.
As to `Nc1ccccc1-c1ccccc1N`, the T/C was 99 % of control (dose: 60.0 mg/kg/injection, schedule: Q01DX005 (ip), vehicle: suspension in saline); 103 % of control (dose: 120.0 mg/kg/injection, schedule: Q01DX005 (ip), vehicle: suspension in saline); 90 % of control (dose: 240.0 mg/kg/injection, schedule: Q01DX005 (ip), vehicle: suspension in saline).
As for `NN1C(=O)c2ccccc2C1=O`, the T/C was 96 % of control under setting [2]; 112 % of control under setting [13]; 95 % of control under setting [14]; 99 % of control (dose: 400.0 mg/kg/injection, schedule: Q01DX009 (ip), vehicle: saline with Tween-80).
As for `Cc1c[nH]c2nc(C)n(-c3ccccc3)c(=N)c12`, the T/C was 100 % of control under setting [15]; 93 % of control under setting [16]; 101 % of control and 96 % of control under setting [8].
On to `NS(=O)(=O)/C(Br)=C/c1ccccc1`, for which the T/C is 90 % of control under setting [2], 118 % of control under setting [13] and 98 % of control under setting [14].
In the case of `CCN(CC)c1ccc(NC(C(=O)c2ccccc2)c2ccccc2)cc1` (configuration not stated), the T/C is 104 % of control and 109 % of control (dose: 3.12 mg/kg/injection, schedule: Q01DX005 (ip), vehicle: Klucel (hydroxypropylcellulose) (HPC)); 103 % of control and 109 % of control and 96 % of control (dose: 6.25 mg/kg/injection, schedule: Q01DX005 (ip), vehicle: Klucel (hydroxypropylcellulose) (HPC)); 104 % of control and 121 % of control and 96 % of control under setting [15]; 112 % of control and 95 % of control under setting [16].
`CCN1CC2(C)CCC(OC)C34C1[C@H](C(=O)[C@@H]23)[C@]1(O)CC[C@H]2C[C@H]4[C@H]1C(=O)O2` (some centres not stated): the T/C was 95 % of control (dose: 1.0 mg/kg/injection, schedule: Q01DX009 (ip), vehicle: Klucel (hydroxypropylcellulose) (HPC)); 96 % of control (dose: 2.0 mg/kg/injection, schedule: Q01DX009 (ip), vehicle: Klucel (hydroxypropylcellulose) (HPC)); 98 % of control (dose: 4.0 mg/kg/injection, schedule: Q01DX009 (ip), vehicle: Klucel (hydroxypropylcellulose) (HPC)).
Regarding `CCN(CC)c1ccc(C(NCC2CCCCO2)C(Cl)(Cl)Cl)cc1` (configuration not stated), the T/C reads like this: (dose: 50.0 mg/kg/injection, schedule: Q01DX005 (ip), vehicle: saline) 117 % of control; (dose: 100.0 mg/kg/injection, schedule: Q01DX005 (ip), vehicle: saline) 102 % of control; (dose: 200.0 mg/kg/injection, schedule: Q01DX005 (ip), vehicle: saline) 100 % of control.
As for `Cc1nonc1-c1ccc2c(c1)OCO2`, the T/C under setting [10] was 110 % of control, the T/C under setting [5] is 105 % of control, the T/C under setting [6] is 106 % of control and the T/C under setting [7] was 105 % of control.
Turning to `CC(c1ccc(N2Cc3ccccc3C2=O)cc1)C(O)C(N)=O` (configuration not stated), the T/C (dose: 50.0 mg/kg/injection, schedule: Q01DX005 (ip), vehicle: saline with Tween-80) was 89 % of control; the T/C (dose: 100.0 mg/kg/injection, schedule: Q01DX005 (ip), vehicle: saline with Tween-80) is 92 % of control; the T/C (dose: 200.0 mg/kg/injection, schedule: Q01DX005 (ip), vehicle: saline with Tween-80) was 89 % of control.
For the compound `CC1NCC23CCC4C(CC=C5CC(O)CCC54C)C2CCC13` (configuration not stated), the T/C is 90 % of control under setting [1], 87 % of control under setting [2] and 94 % of control under setting [13].
As to `CCCCCCCCCCCC(=O)Nc1ncnc2nc[nH]c12`, the T/C was 93 % of control under setting [5]; 95 % of control under setting [6]; 98 % of control under setting [7]; 104 % of control (dose: 400.0 mg/kg/injection, schedule: Q01DX009 (ip), vehicle: Klucel (hydroxypropylcellulose) (HPC)).
For the compound `C=CCNSc1cccc([N+](=O)[O-])c1`, the T/C is 121 % of control (dose: 6.25 mg/kg/injection, schedule: Q01DX009 (ip), vehicle: Klucel (hydroxypropylcellulose) (HPC)); 120 % of control under setting [9]; 121 % of control under setting [10]; 102 % of control and 103 % of control and 115 % of control under setting [5].
As to `NC(=O)c1cc(Br)ccc1[N+](=O)[O-]`, the T/C is 97 % of control under setting [11]; 97 % of control under setting [12]; 87 % of control (dose: 200.0 mg/kg/injection, schedule: Q01DX009 (ip), vehicle: saline).
As for `CN(c1ccccc1)c1nnnn1-c1ccccc1`, the T/C runs as follows: (dose: 50.0 mg/kg/injection, schedule: Q04DX003 (ip), vehicle: saline with Tween-80) 95 % of control; under setting [3], 104 % of control; under setting [4], 111 % of control.
